Key:
[1] = Stability test: intense light test (4500LX); type: physicochemical; conditions: 4500LX±500LX light for 10 days, HPLC
Experimental: The test samples were placed into an integrated drug stability test chamber (YSEI) in an exposed way under 4500LX±500LX light for 10 days. Samples were taken on the 5th and 10th days and tested according to the drug stability test indices.
(§1) An appropriate amount of test samples was taken and dissolved in acetonitrile-water (1:1), and quantitatively diluted to a solution of about 0.3 mg/ml. 20 ul of solution was injected into a liquid chromatograph (Agilent 1260 Infinity), the chromatogram was then recorded and calculated according to the percentage area method. The mobile phase was a phosphate buffer and acetonitrile aqueous solution, and then a gradient elution was carried out.

[2] = Stability test: high temperature test (60° C.); type: physicochemical; conditions: exposed at 60° C. for 10 days, HPLC
Experimental: The test samples were placed into an integrated drug stability test chamber (YSEI) in an exposed way at 60° C. for 10 days. Samples were taken on the 5th and 10th days and tested according to the drug stability test indices.
as §1

[3] = Stability test: high humidity test (90%); type: physicochemical; conditions: 25° C., relative humidity 90%±5%, 10 days, HPLC
Experimental: The test samples were placed into an integrated drug stability test chamber (YSEI) in an exposed way at 25° C. and relative humidity of 90%±5% for 10 days. Samples were taken on the 5th and 10th days and tested according to the drug stability test indices.
as §1

[4] = system: MV4-11 cell Bab/c nude mouse tumor model; assay: In vivo tumor growth inhibition experiment; conditions: Dose 2.5 mg/kg
Experimental: Xenotransplantation in immunodeficient mice is an effective model for testing in vivo antitumor activity of compounds in animals. Bab/c immunodeficient mice are one of the most commonly used tumor cell xenografts. […] Log-phase MV4-11 cells were collected in a 50 ml of centrifuge tube (Corning), centrifuged at 1,700 rpm for 3 minutes, and the supernatant was discarded. Cells were suspended in a 50 ml 1×RPMI 1640 serum-free medium, and centrifuged, the supernatant was discarded and resuspension was performed. The cells were counted (Countess® Automated Cell Counting Apparatus, Invitrogen), prepared into […], placed on ice, and inoculated subcutaneously with 10×10^6 (0.2 ml) to the right back of 6-8-week female Bab/c nude mice (about 20 g in weight) (purchased from Shanghai Sippr-BK Experimental Animal Co., Ltd., Animal Center of Shanghai University of Traditional Chinese Medicine, approved by Ethical Committee of Shanghai University of Traditional Chinese Medicine). When the tumor grew to a size of 100-200 mm^3, animals were randomly grouped and earmarked and weighed. The treatment group consisted of 3 to 6 nude mice in each group. Drugs were prepared into different concentrations of milky suspension with a solvent PTP solution (30% polyethylene glycol 400, 0.5% Tween-80, 2.5% propylene glycol). Animals were given by oral gavage continuously at a concentration of 0.1 ml/10 g body weight, with a dose range of 0.1-200 mg/kg (the purity of the test compound of the present invention was 99% or more, and the proportion of single impurity was not more than 0.1%). In the control group, 3 to 6 nude mice in each group were given the same volume (0.1 ml/10 g body weight) of solvent PTP solution, and the tumors were measured 3 to 4 times per week. When the average tumor volume in the control group reached 1500 mm^3, or on the 28th day of administration, the experiment ended, then the tumor was weighed and subjected to molecular pathology assay.
The tumor volume was calculated as V=½a×b^2, where a is the length and b is the width. The relative tumor volume (RTV) was calculated based on the measured results and the formula was RTV=Vt/V0, where V0 is the measured tumor volume when administered in divided cages (i.e., do), and Vt is the tumor volume at each measurement.

Solubility test = type: physicochemical; conditions: in water at 25° C.±2° C.; listed as 89 Free base
Procedure, shortened: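 Fine powder added to water at 25° C.±2° C., shaken vigorously 30 s every 5 min for 30 min; dissolution judged by absence of visible particles. Classed by water volume per 1 g: 1-10 ml readily soluble, 10-30 soluble, 30-100 slightly, 100-1,000 sparingly, not dissolved in 10,000 ml insoluble.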

## CC(C)(C)c1cc(NC(=O)Nc2ccc(-n3cnc4cc(OCCN5CCOCC5)ccc43)cc2)[nH]n1 [Compound 89, 1-(5-tert-butyl-2H-pyrazol-3-yl)-3-{4-[5-(2-morpholin-4-yl-ethoxyl)-benzimidazol-1-yl]-phenyl}-urea]
[1]
  Lighting (4500 LX): stable
[2]
  High temperature (60° C.): stable
[3]
  High Humidity (90%): stable
[4]; Day 6
  Tumor Inhibition Rate (%): 60.7%
[4]; Day 10
  Tumor Inhibition Rate (%): 79.4%
[4]; Day 15
  Tumor Inhibition Rate (%): 84.7%
[4]; Day 20
  Tumor Inhibition Rate (%): 87.2%
Solubility test
  Solubility: insoluble (“nearly insoluble or insoluble” means that 1 g of the test sample could not be completely dissolved in 10,000 ml of water)
